# Ends that are not written are not given here.
# Tests used:
# [1] = in vivo; cited from earlier work
# Description: (§1) At present, clinical drugs for HGPS are very rare except for Zokinvy (lonafarnib), which has been approved by the United States (US) Food and Drug Administration (FDA). […] Recently, some gene therapies for HGPS treatment have been developed. The clustered regularly interspaced short palindromic repeat–adeno-associated virus 9 system is used to reduce the expression of progerin and the adenine base editor–adeno-ass ...
# HEK-293T cells = assay: Immunofluorescence localization of Flag-progerin-C in HEK-293T cells; assay type: cell-based; conditions: Flag-progerin-C expressed in HEK-293T
# Experimental: (§2) Immunofluorescence was performed as described previously. Cells were plated on cover slips in 12-well plates, left overnight before the treatment. Cells were fixed in 1% formaldehyde in culture medium for 10 min at 37 °C and permeabilized with 0.2% Triton X-100 in PBS for 10 min at room temperature. Cells were washed twice in PBS and blocked for 1 h with 5% BSA in PBS and then incubated with primary antibodies at 4 °C overnight, washed three times in PBS and incubated with secondary antibodies for 1 h at room temperature. Cell nuclei were counterstained with a 500 nM concentration of 4,6-diamidino-2-phenylindole (DAPI) (Sigma). Images were acquired by a fluorescence microscope (OLYMPUS FV-1000, Carl Zeiss LSM880 or Leica DMi8) and analyzed with software NIS-Elements AR v.5.0.1 (Nikon), FLUOVIEW v.4.2b (OLYMPUS), ZEN v.2.3 SP1 (Carl Zeiss) and Leica Application Suite X v.3.6.0.24 (Leica). Cells were quantified by investigators who were blinded to the identity of the analyzed cell.
# [2] = system: progerin–BUBR1 interaction; assay: CoIP of progerin and BUBR1 in HEK-293T cells; assay type: cell-based; conditions: HEK-293T cotransfected with Flag-progerin-C 5, 10, 15 μg and HA-progerin
# Experimental: Detailed descriptions of CoIP were described previously[55],[56]. Cells were harvested and washed three times in cold PBS, then lysed in CoIP buffer (25 mM Tris-HCl (pH 7.5), 150 mM KCl, 5 mM EDTA, and 0.5% NP-40) plus protease inhibitor cocktail tablet (Roche). Incubate on ice and shock lysates on the vortex shaker 15 times for 30 s each. Microcentrifuge in 12,000g for 15 min at 4 °C, collect the supernatant, and incubate with 3 μg primary antibodies with gentle shaking overnight at 4 °C, followed by adding 20–40 μl Pure Proteome Protein A/G Mix Magnetic Beads (Millipore, catalog no. […]02) for 3 h. Wash the beads three times with 1 ml CoIP buffer for 8 min each, resuspend in 50 μl 1× loading buffer, and incubate at 100 °C for 8 min. Throw beads away and analyze by immunoblotting.
# HGPS cells = conditions: cited from earlier work
# Description: as §1
# [3] = system: BUBR1 / CyclinA2 in HGADFN003 cells; assay: Western blot of BUBR1 and CyclinA2 in HGADFN003 cells; assay type: cell-based, human; conditions: HGADFN003
# Experimental: Western blot was performed as previously described. Cells were lysed in 1× Laemmli sample buffer after washing twice in cold PBS without calcium and magnesium. Protein concentrations were determined using the bicinchoninic acid (BCA) protein assay. Protein lysates were subjected to SDS–PAGE, transferred to 0.45-μm pore size hydrophobic PVDF transfer membrane (Merck Millipore), detected with the appropriate primary antibodies coupled with horseradish peroxidase-conjugated corresponding secondary antibodies, and visualized using enhanced chemiluminescence ECL reagent (GE Healthcare). The Tanon 5500 high-definition low-illumination CCD system (Tanon FLI Capture v.1.02) was used to capture chemiluminescent signals.
# HGADFN003 cells [4] = assay: Ki67 immunofluorescence of HGADFN003 cells; assay type: cell-based, human; conditions: for Ki67 positive cells: HGADFN003, Extended Data Fig. 10e
# Experimental: as §2
# HGADFN003 cells [5] = assay: SA-β-gal staining of HGADFN003 cells; assay type: cell-based, human; conditions: for SA-β-gal positive cells: HGADFN003, Extended Data Fig. 10c
# Experimental: SA-β-gal staining was performed as previously described. Cells were fixed in 0.5% glutaraldehyde for 15 min at room temperature, washed three times with PBS (pH 6.0) containing 1 mM MgCl2 and exposed overnight 37 °C to containing 1 mg ml^–1 5-bromo-4-chloro-3-indolyl-β-D-galactopyranoside (MCE, catalog no. HY-15934), 0.12 mM potassium ferrocyanide (Sigma, catalog no. P3289), 0.12 mM potassium ferricyanide (Sigma, catalog no. P8131) and 1 mM MgCl2 PBS buffer (pH 6.0). Cells were washed three times with H2O and observed under a microscope (OLYMPUS CKX53). SA-β-gal positive cells were quantified by investigators who were blinded to the identity of the analyzed cell.
# [6] = system: BUBR1–progerin interaction; assay: Immunofluorescence of BUBR1 in IMR90 cells with FTI or UPCP; assay type: cell-based, human
# Experimental: as §2
compound,measurement,setting,value
"NC(=O)N1CCC(CC(=O)N2CCC([C@H]3c4ncc(Br)cc4CCc4cc(Cl)cc(Br)c43)CC2)CC1 [Zokinvy (lonafarnib), lonafarnib]",adverse reactions,[1],diarrhea and vomiting
"progerin-C: progerin C-terminal region (aa residues 565–614), expressed in cells (HHGSHCSSSGDPAEYNLRSRTVLCGTCGQPADKASASGSGAQSPQNCSIM; cysteine pairing not given here; also: 3×Flag tag, end not given here)",cellular location,HEK-293T cells,distributed throughout the cell
same,competition with progerin to bind BUBR1,[2],competes with progerin to bind BUBR1
neuropeptide Y,cellular HGPS aging phenotype,HGPS cells,delays the cellular HGPS aging phenotype by stimulating autophagy and decreasing progerin accumulation
"COC(=O)[C@H](CCSC)NC(=O)c1ccc(NC[C@@H](N)CS)cc1-c1ccccc1 [FTI-277, reference compound]","BUBR1 expression (FTI-277/UPCP comparison, words)",[3],increasing expression of BUBR1
same,"CyclinA2 expression (FTI-277/UPCP comparison, words)",[3],"increasing expression of BUBR1, CyclinA2"
same,"Ki67 expression (FTI-277/UPCP comparison, words)",HGADFN003 cells [4]; HGADFN003,"increasing expression of BUBR1, CyclinA2 and Ki67"
same,Ki67 positive cells,HGADFN003 cells [4]; replicate 1,57%
same,Ki67 positive cells,HGADFN003 cells [4]; replicate 2,61%
same,Ki67 positive cells,HGADFN003 cells [4]; replicate 3,75%
same,"SA-β-gal activity (FTI-277/UPCP comparison, words)",HGADFN003 cells [5]; HGADFN003,decreased the activity of SA-β-gal
same,SA-β-gal positive cells,HGADFN003 cells [5]; replicate 1,20%
same,SA-β-gal positive cells,HGADFN003 cells [5]; replicate 2,15%
same,SA-β-gal positive cells,HGADFN003 cells [5]; replicate 3,13%
same,block of the interaction of BUBR1 and progerin,[6],failed to block the interaction of BUBR1 and progerin

# From paper PMC10154249, “Unique progerin C-terminal peptide ameliorates Hutchinson–Gilford progeria syndrome phenotype by rescuing BUBR1” (Nature Aging, 2023)
